A value given as a limit tells only on which side of the number the result lay.

HPK1 kinase, sequence (Q92918 whole entry): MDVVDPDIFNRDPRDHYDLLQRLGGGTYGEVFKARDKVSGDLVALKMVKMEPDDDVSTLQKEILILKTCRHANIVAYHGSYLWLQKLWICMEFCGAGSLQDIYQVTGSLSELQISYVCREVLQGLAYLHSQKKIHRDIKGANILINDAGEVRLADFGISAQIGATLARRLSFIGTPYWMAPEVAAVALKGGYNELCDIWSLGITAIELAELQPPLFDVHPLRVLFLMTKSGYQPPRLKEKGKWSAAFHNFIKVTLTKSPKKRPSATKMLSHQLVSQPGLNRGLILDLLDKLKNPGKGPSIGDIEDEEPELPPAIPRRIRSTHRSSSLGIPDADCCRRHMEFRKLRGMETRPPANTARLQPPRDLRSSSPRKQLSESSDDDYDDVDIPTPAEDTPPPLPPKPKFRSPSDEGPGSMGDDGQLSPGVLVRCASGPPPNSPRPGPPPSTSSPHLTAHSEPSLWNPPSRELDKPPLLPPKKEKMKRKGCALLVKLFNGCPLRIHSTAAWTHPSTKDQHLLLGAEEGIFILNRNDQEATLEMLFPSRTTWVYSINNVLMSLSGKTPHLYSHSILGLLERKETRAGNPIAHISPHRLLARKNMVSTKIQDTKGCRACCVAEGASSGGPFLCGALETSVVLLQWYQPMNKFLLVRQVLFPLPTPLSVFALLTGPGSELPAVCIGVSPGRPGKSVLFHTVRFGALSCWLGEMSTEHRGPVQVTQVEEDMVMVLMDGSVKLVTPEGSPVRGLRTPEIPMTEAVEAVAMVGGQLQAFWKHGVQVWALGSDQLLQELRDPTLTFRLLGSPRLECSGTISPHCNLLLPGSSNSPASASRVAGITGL

The target of the assay is HPK1 kinase (Homo sapiens, UniProt Q92918). Nature of the assay: Lantha screen assay, inhibitory effect on HPK1 kinase. The class given is biochemical. The following applies: initial compound concentration 1 µM. Here is the method:
The Lantha screen assay is used to evaluate the inhibitory effect of the compounds on HPK1 kinase. • a) Kinase buffer: 50 mM HEPES (pH 7.5), 10 mM MgCl2, 4 mM DTT, 0.01% Tween-20, 0.01% BSA. • b) Compound Preparation: The compound is diluted with DMSO, and the initial detection concentration of the compound is 1 µM and is diluted to the corresponding concentration. • c) Kinase response and termination: A kinase solution is prepared by adding kinase buffer, the kinase solution and the compound are added to the test plate to be incubated at room temperature for 10 minutes. Fluorescein-PKC and ATP are added to the kinase buffer to form a substrate solution, and 5 µl of the substrate solution is added to the test plate to start the reaction to be incubated at room temperature for 90 minutes; then, 10 µl of a mixture of antibody and EDTA is added to terminate the reaction to be incubated at room temperature for 60 minutes. • d) The date is read by Envision instrument to plot a curve with the Log concentration of the inhibitor as the X-axis and the inhibition rate as the Y-axis, and then the formula Y=Bottom + (Top-Bottom)/(1+(IC50/X)^HillSlope) is used to obtain IC50. Table 1 Inhibitory activity the compounds of the invention on HPK1 kinase
As for `CN(C)C(=O)c1ccc(-c2c[nH]c3ncc(-c4ccc(C5=CCN(CC6CN(c7ccc(C(=O)NC8CCC(=O)NC8=O)cc7)C6)CC5)c(C5CCCN5)c4)nc23)cc1` (stereo not shown) [compound 058], the IC50 was under 0.01 µM. Compound `Cc1cc(-c2cnc3[nH]cc(-c4ccc(C(=O)N(C)C)cc4)c3n2)cc(C)c1C1=CCN(C2CN(c3ccc(C4CCC(=O)NC4=O)cc3)C2)CC1` (stereo not shown) [compound 048] had an IC50 of under 0.01 µM. Take `Cc1cc(-c2cnc3[nH]cc(-c4ccc(C(=O)N(C)C)cc4)c3n2)cc(C)c1C1=CCN(CC2CN(c3ccc4c(=O)n(C5CCC(=O)NC5=O)ccc4c3)C2)CC1` (stereo not shown) [compound 084]: the IC50 was under 0.01 µM. For the compound `Cc1cc(-c2cnc3[nH]nc(-c4ccc(C(=O)N(C)C)cc4)c3c2)cc(C)c1C1=CCN(CC2CCN(C(=O)c3ccc(F)c(N4CCC(=O)NC4=O)c3)C2)CC1` (stereo not shown) [compound 078], the IC50 is under 0.01 µM.

In turn, `Cc1cc(-c2cnc3[nH]nc(-c4ccc(C(=O)N(C)C)cc4)c3n2)cc(C)c1C1=CCN(CC2CCN(c3ccc(N4CCC(=O)NC4=O)c(F)c3)C2)CC1` (stereo not shown) [compound 076] registered an IC50 of under 0.01 µM. The compound `Cc1cc(-c2cnc3[nH]cc(-c4ccc(C(=O)N(C)C)cc4)c3n2)cc(C)c1C1=CCN(CC2CN(c3cc(F)c(C4CCC(=O)NC4=O)c(F)c3)C2)CC1` (stereo not shown) [compound 002] had an IC50 of under 0.01 µM.

`Cc1cc(-c2cnc3[nH]cc(-c4ccc(C(=O)N(C)C)cc4)c3n2)cc(C)c1C1=CCN(C(=O)CCc2cc(F)c(N3CCC(=O)NC3=O)c(F)c2)CC1` [compound 047] yielded an IC50 of under 0.01 µM.

For the compound `Cc1cc(N2CC(CN3CC=C(c4c(C)cc(-c5cnc(N)c(Oc6cnn(C7CCN(C)CC7)c6)n5)cc4C)CC3)C2)ccc1N1CCC(=O)NC1=O` [compound 092], the IC50 is under 0.01 µM. On to `Cc1cc(-c2cnc3[nH]cc(-c4ccc(C(=O)N(C)C)nc4)c3n2)cc(C)c1C1=CCN(CC2CN(c3ccc(C(=O)NC4CCC(=O)NC4=O)cc3)C2)CC1` (stereo not shown) [compound 030], for which the IC50 was under 0.01 µM. Take `COc1ccc(C(=O)N2CC(CN3CC=C(c4ncc(-c5cnc6[nH]cc(-c7ccc(C(=O)N(C)C)cc7)c6n5)cc4CN(C)C)CC3)C2)cc1N1CCC(=O)NC1=O` [compound 053]: the IC50 is under 0.01 µM. Take `Cc1cc(-c2cnc3[nH]nc(-c4ccc(C(=O)N(C)C)cc4)c3c2)cc(C)c1C1=CCN(C2CCN(c3ccc(C(=O)NC4CCC(=O)NC4=O)cn3)CC2)CC1` (stereo not shown) [compound 080]: the IC50 was under 0.01 µM.

`CCN1CCC(n2cc(-c3c[nH]c4ncc(-c5cc(C)c(C6=CCN(CC7CN(c8ccc(C9CCC(=O)NC9=O)cc8)C7)CC6)c(C)c5)nc34)cn2)CC1` (stereo not shown) [compound 056] registered an IC50 of under 0.01 µM. For `COc1cc(N2CC(CN3CC=C(c4c(C)cc(-c5cnc6scc(-c7ccc(C(=O)N(C)C)cc7)c6n5)cc4C)CC3)C2)ccc1C(=O)NC1CCC(=O)NC1=O` (stereo not shown) [compound 083] the value was under 0.01 µM; for `Cc1cc(C(=O)N2CC(N3CC=C(c4c(C)cc(-c5cnc6[nH]cc(-c7ccc(C(=O)N(C)C)cc7)c6n5)cc4C)CC3)C2)ccc1C1CCC(=O)NC1=O` (stereo not shown) [compound 010], under 0.01 µM; for `Cc1cc(-c2cnc3[nH]cc(-c4ccc5c(c4)C(C)(C)OC5=O)c3n2)cc(C)c1C1=CCN(C2CN(c3ccc(C4CCC(=O)NC4=O)cc3)C2)CC1` (stereo not shown) [compound 066], under 0.01 µM.

On to `Cc1ccc(C(=O)N2CC(CN3CC=C(c4ccc(-c5cnc6[nH]cc(-c7ccc(C(=O)N(C)C)cc7)c6n5)cc4CN(C)C)CC3)C2)cc1N1CCC(=O)NC1=O` [compound 051], for which the IC50 was under 0.01 µM. Turning to `Cc1cc(-c2cnc3[nH]cc(-c4ccc(C(=O)N(C)C)cc4)c3n2)cc(C)c1C1=CCN(C2CN(C(=O)c3ccc(NC4CCC(=O)NC4=O)cc3)C2)CC1` (stereo not shown) [compound 020], the IC50 is under 0.01 µM. In turn, `Cc1cc(N2CC(CN3CC=C(c4c(C)cc(-c5cnc6[nH]cc(-c7ccc(C(=O)N(C)C)cc7)c6n5)cc4C)CC3)C2)ccc1NC1CCC(=O)NC1=O` (stereo not shown) [compound 021] registered an IC50 of under 0.01 µM. The value for `Cc1cc(-c2cnc3[nH]cc(-c4ccc(C(=O)N(C)C)cc4)c3n2)cc(C)c1C1=CCN(CC2CN(c3ccc(NC4CCC(=O)NC4=O)cc3)C2)CC1` (stereo not shown) [compound 043] was under 0.01 µM; that for `Cc1cc(N2CC(CCN3CC=C(c4c(C)cc(-c5cnc6[nH]cc(-c7ccc(C(=O)N(C)C)cc7)c6n5)cc4C)CC3)C2)ccc1N1CCC(=O)NC1=O` [compound 127] was under 0.01 µM; that for `Cc1cc(N2CC(CN3CC=C(c4c(C)cc(-c5cnc6[nH]cc(-c7ccc(-c8ncco8)cc7)c6c5)cc4C)CC3)C2)ccc1N1CCC(=O)NC1=O` [compound 138] was under 0.01 µM. Consider `Cc1cc(-c2cnc3[nH]cc(-c4ccc(C(=O)N(C)C)cc4)c3c2)cc(C)c1C1=CCN(CC2CN(c3ccc(C(=O)NC4CCC(=O)NC4=O)cc3)C2)CC1` (stereo not shown) [compound 063], for which the IC50 was under 0.01 µM. For `Cc1cc(-c2cnc3[nH]cc(-c4ccc(C(=O)N(C)C)c(F)c4)c3n2)cc(C)c1C1=CCN(CC2CN(c3ccc(C(=O)NC4CCC(=O)NC4=O)cc3)C2)CC1` (stereo not shown) [compound 029] the value was under 0.01 µM. As to `Cc1cc(-c2cnc3[nH]cc(-c4ccc(C(=O)N(C)C)cc4)c3n2)cc(C)c1C1=CCN(CC2CN(c3ccc(C4CCC(=O)NC4=O)cc3)C2)CC1` (stereo not shown) [compound 102], the IC50 was under 0.01 µM. For `Cc1cc(-c2cnc3[nH]cc(-c4ccc(C(=O)N(C)C)cc4)c3n2)cc(C)c1C1=CCN(CC2CN(C3=CC(=O)N(C4CCC(=O)NC4=O)C3=O)C2)CC1` (stereo not shown) [compound 088] the value was under 0.01 µM; for `CNS(=O)(=O)c1cc(C)cc(-c2cnc(N)c(Oc3cnn(C4CCN(CC5CN(c6ccc(C(=O)NC7CCC(=O)NC7=O)cc6)C5)CC4)c3)n2)c1` (stereo not shown) [compound 090], under 0.01 µM. In turn, `Cc1cc(-c2cnc3[nH]cc(-c4ccc(C(=O)N(C)C)cc4)c3n2)cc(C)c1C1=CCN(CC2CC2Nc2ccc(C(=O)NC3CCC(=O)NC3=O)cc2)CC1` (stereo not shown) [compound 036] had an IC50 of under 0.01 µM. For `Cc1cc(-c2cnc3[nH]cc(-c4ccc(C(=O)N(C)C)cc4)c3n2)cc(C)c1C1=CCN(CC2CN(C(=O)c3ccc(Cl)c(N4CCC(=O)NC4=O)c3)C2)CC1` [compound 124] the value was under 0.01 µM; for `Cc1cc(-c2cnc3[nH]cc(-c4ccc(C(=O)N(C)C)cc4)c3n2)cc(C)c1C1=CCN(CC#Cc2ccc(C(=O)NC3CCC(=O)NC3=O)cc2)CC1` (stereo not shown) [compound 026], under 0.01 µM; for `CCOc1cc(-c2cnc3[nH]cc(-c4ccc(C(=O)N(C)C)cc4)c3c2)ccc1C1=CCN(CC2CN(c3ccc(N4CCC(=O)NC4=O)c(C)c3)C2)CC1` [compound 137], under 0.01 µM. `Cc1cc(-c2cnc3[nH]cc(-c4ccc(C(=O)N(C)C)cc4)c3n2)cc(C)c1C1=CCN(CC2CCN(c3ccc(C(=O)NC4CCC(=O)NC4=O)cc3)C2)CC1` (stereo not shown) [compound 074] yielded an IC50 of under 0.01 µM. Compound `Cc1cc(-c2cnc3[nH]cc(-c4ccc(C(=O)N(C)C)cc4)c3n2)cc(C)c1C1=CCN(CC2CN(c3ccc(NC4CCC(=O)NC4=O)c(F)c3)C2)CC1` (stereo not shown) [compound 019] yielded an IC50 of under 0.01 µM. For `COc1cc(C(=O)CCN2CC=C(c3c(C)cc(-c4cnc5[nH]cc(-c6ccc(C(=O)N(C)C)cc6)c5n4)cc3C)CC2)ccc1C1CCC(=O)NC1=O` (stereo not shown) [compound 009] the value was under 0.01 µM; for `Cc1cc(-c2cnc3[nH]cc(-c4ccc(C(=O)N(C)C)cc4)c3c2)cc(C)c1C1=CCN(CC2CCN(C(=O)c3ccc(Cl)c(N4CCC(=O)NC4=O)c3)CC2)CC1` [compound 126], under 0.01 µM.

For the origin of these results see EP4813992A1, “POLYARYL DERIVATIVE AND USE THEREOF” (Hangzhou HealZen Therapeutics Co., Ltd., priority 2023, dated 2025).
